Reference: ChEMBL document CHEMBL1201862, “PubChem BioAssay data set” (2004)
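Values below derive from 48-hour exposures of cells grown in 96-well plates, with endpoints linearly interpolated between the two concentrations bracketing the appropriate inhibition level. GI50 is the concentration that inhibits growth by half.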 Activity calls are given as the source filed them. No stated cut-off is given here; in the data, active = GI50 up to about 1.1 µM and inactive = higher.

Assays:
Assay in all cases: NCI anticancer screen, dose series, 48 h
[1] = tested on: DU-145
[2] = tested on: LOX IMVI
[3] = tested on: NCI-H23
[4] = tested on: SW-620
[5] = tested on: MDA-N
[6] = tested on: SNB-19
[7] = tested on: OVCAR-8
[8] = tested on: SN12C
[9] = tested on: EKVX
[10] = tested on: A549
[11] = tested on: SNB-75
[12] = tested on: HT-29
[13] = tested on: M14
[14] = tested on: OVCAR-5
[15] = tested on: PC-3
[16] = tested on: CCRF-CEM
[17] = tested on: SR
[18] = tested on: HOP-62
[19] = tested on: HCT-116

SMILES	GI50 [1]	GI50 [2]	GI50 [3]	GI50 [4]	GI50 [5]	GI50 [6]	GI50 [7]	GI50 [8]	GI50 [9]	GI50 [10]	GI50 [11]	GI50 [12]	GI50 [13]	GI50 [14]	GI50 [15]	GI50 [16]	GI50 [17]	GI50 [18]	GI50 [19]
C[C@]12C=CC(=O)C=C1CC[C@@H]1[C@@H]2CC[C@@]2(C)[C@H]1CC[C@]2(O)C(N)=O	> 100 µM (inactive)	> 100 µM (inactive)	> 100 µM (inactive)	> 100 µM (inactive)	> 100 µM (inactive)	> 100 µM (inactive)	> 100 µM (inactive)	> 100 µM (inactive)	> 100 µM (inactive)	> 100 µM (inactive)	> 100 µM (inactive)	> 100 µM (inactive)	> 100 µM (inactive)	> 100 µM (inactive)	> 100 µM (inactive)	> 100 µM (inactive)	> 100 µM (inactive)	> 100 µM (inactive)	> 100 µM (inactive)
O=C(Nc1ccc(Cl)cc1)c1cc(S(=O)(=O)NC2=Nc3ccc(Cl)cc3C(c3ccccc3)N2)c(SSc2cc(Cl)c(C(=O)Nc3ccc(Cl)cc3)cc2S(=O)(=O)NC2=Nc3ccc(Cl)cc3C(c3ccccc3)N2)cc1Cl (stereo not drawn)	> 100 µM (inactive)	> 100 µM (inactive)	> 100 µM (inactive)	> 100 µM (inactive)	> 100 µM (inactive)	> 100 µM (inactive)	> 100 µM (inactive)	> 100 µM (inactive)	> 100 µM (inactive)	> 100 µM (inactive)	> 100 µM (inactive)	> 100 µM (inactive)	46.1 µM (inactive)	83.4 µM (inactive)	> 100 µM (inactive)	17.1 µM (inactive)	16.5 µM (inactive)	> 100 µM (inactive)	> 100 µM (inactive)
COc1ccc(NC2CC(C)N(C(=O)c3ccccc3)O2)cc1 (stereo not drawn)	> 10 µM (inactive)	> 10 µM (inactive)	> 10 µM (inactive)	> 10 µM (inactive)	> 10 µM (inactive)	> 10 µM (inactive)	> 10 µM (inactive)	> 10 µM (inactive)	> 10 µM (inactive)	> 10 µM (inactive)	> 10 µM (inactive)	> 10 µM (inactive)	> 10 µM (inactive)	> 10 µM (inactive)	> 10 µM (inactive)	> 10 µM (inactive)	> 10 µM (inactive)	> 10 µM (inactive)	> 10 µM (inactive)
CCOc1cc(NC(C)=O)ccc1C(=O)NN1C(=O)C(Cl)C1c1ccccc1 (stereo not drawn)	17.6 µM (inactive)	1.37 µM (inactive)	14.3 µM (inactive)	12.4 µM (inactive)	13.8 µM (inactive)	15.1 µM (inactive)	20.9 µM (inactive)	13.9 µM (inactive)	14.9 µM (inactive)	16.5 µM (inactive)	15.6 µM (inactive)	16.6 µM (inactive)	12.4 µM (inactive)	17.4 µM (inactive)	14 µM (inactive)	2.67 µM (inactive)	4.34 µM (inactive)	20.5 µM (inactive)	17.5 µM (inactive)
COc1cc(C2c3[nH]c4ccccc4c3C[C@H]3COC(=O)N23)cc(OC)c1OC (stereo partly drawn)	0.0879 µM (active)	0.0336 µM (active)	0.0776 µM (active)	0.051 µM (active)	0.0181 µM (active)	0.0803 µM (active)	0.178 µM (active)	0.163 µM (active)	< 0.01 µM (active)	0.101 µM (active)	0.0923 µM (active)	0.097 µM (active)	0.0611 µM (active)	0.112 µM (active)	0.0411 µM (active)	0.0406 µM (active)	0.0373 µM (active)	0.0467 µM (active)	0.0416 µM (active)
COc1cc2c(cc1OC)C1Cc3ccccc3CCN1CC2 (stereo not drawn)	> 100 µM (inactive)	> 100 µM (inactive)	> 100 µM (inactive)	> 100 µM (inactive)	> 100 µM (inactive)	> 100 µM (inactive)	> 100 µM (inactive)	> 100 µM (inactive)	> 100 µM (inactive)	> 100 µM (inactive)	68.5 µM (inactive)	48.1 µM (inactive)	> 100 µM (inactive)	> 100 µM (inactive)	62.1 µM (inactive)	> 100 µM (inactive)	92.9 µM (inactive)	> 100 µM (inactive)	39.1 µM (inactive)
COC(=O)/C=C1\CCCN1CCc1cc2c(cc1CC#N)OCO2	80.4 µM (inactive)	> 100 µM (inactive)	47.2 µM (inactive)	49.7 µM (inactive)	18.3 µM (inactive)	60 µM (inactive)	> 100 µM (inactive)	50 µM (inactive)	58.9 µM (inactive)	> 100 µM (inactive)	25.1 µM (inactive)	32.2 µM (inactive)	71.1 µM (inactive)	> 100 µM (inactive)	> 100 µM (inactive)	42.5 µM (inactive)	16.5 µM (inactive)	52.4 µM (inactive)	41.2 µM (inactive)
